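A five-concentration, 48-hour dose response in 96-well plates underlies each endpoint, interpolated linearly between surrounding concentrations. GI50: concentration for 50% inhibition of growth.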 Calls of active or inactive are those of the source. Rule as the data show it: active = GI50 up to about 1.1 µM and inactive = higher.

The record followed here is ChEMBL document CHEMBL1201862, “PubChem BioAssay data set” (2004).

Among the test systems are MCF7; TK-10; SNB-19; PC-3; OVCAR-3; ACHN; A498; MOLT-4; HOP-92; MDA-N; HCT-15; HL-60; T47D; EKVX; SK-OV-3; IGROV-1; K562; NCI-H522; LOX IMVI; SF-539.
Common to all, as to test: NCI-60 cell line screen, 48 h

In the case of `Clc1ccc2c(c1)CC1C[N+]3=C(CCCC3)C1=C2` (stereo unspecified), the GI50 is 61.1 µM (inactive) in the assay with MCF7; 72.8 µM (inactive) with TK-10; 48.3 µM (inactive) with SNB-19; 60.5 µM (inactive) in the assay with PC-3; 34.4 µM (inactive) in the assay on OVCAR-3; > 100 µM (inactive) in the assay with ACHN. Further, the GI50 is 72.1 µM (inactive) with A498; > 100 µM (inactive) in the assay on MOLT-4; 63.5 µM (inactive) with HOP-92; > 100 µM (inactive) in the assay on MDA-N; more than 100 µM in the assay with HCT-15; 40 µM (inactive) in the assay on HL-60. For the same compound, the GI50 is 51.3 µM (inactive) in the assay with T47D; 78.7 µM (inactive) with EKVX; > 100 µM (inactive) with SK-OV-3; > 100 µM (inactive) in the assay on IGROV-1; 75.3 µM (inactive) in the assay with K562; 47.4 µM (inactive) with NCI-H522. In addition, the GI50 with LOX IMVI was > 100 µM (inactive).
`CC1=NC(=Cc2cccc(Cl)c2)C(=O)N1n1c(-c2ccccc2)nc2ccccc2c1=O`: the GI50 was 20.4 µM (inactive) in the assay on MCF7; 50.6 µM (inactive) in the assay on TK-10; 59.2 µM (inactive) with SNB-19; 36.1 µM (inactive) with SF-539; 31.3 µM (inactive) with PC-3; 24.5 µM (inactive) with ACHN. The GI50 in the assay on A498 was 26.4 µM (inactive); in the assay with MOLT-4 it was 27.9 µM (inactive); with MDA-N, 30.4 µM (inactive); in the assay on HCT-15 it was 39.3 µM; in the assay with HL-60 it was 22.8 µM (inactive); in the assay on T47D, 19.8 µM (inactive). In addition, the GI50 is 21.2 µM (inactive) in the assay with EKVX; 37.8 µM (inactive) with SK-OV-3; 23.2 µM (inactive) in the assay on IGROV-1; 41.6 µM (inactive) in the assay with K562; 17.5 µM (inactive) in the assay with NCI-H522; 25.9 µM (inactive) in the assay on LOX IMVI.
On to `O=C1NC(=S)NC(=O)C1C(c1ccccc1[N+](=O)[O-])C1C(=O)NC(=S)NC1=O.c1ccncc1`, for which the GI50 with MCF7, in the assay on TK-10, in the assay with SNB-19, in the assay on PC-3, with OVCAR-3 and in the assay with ACHN was > 100 µM (inactive) throughout. Besides, the GI50 in the assay with A498 was > 100 µM (inactive); in the assay with MOLT-4 it was > 100 µM (inactive); in the assay with HOP-92, > 100 µM (inactive); in the assay on MDA-N, > 100 µM (inactive); with HCT-15 it was more than 100 µM; in the assay on HL-60 it was 26.3 µM (inactive). Besides, the GI50 in the assay on T47D, in the assay with K562, with NCI-H522 and with LOX IMVI was > 100 µM (inactive) each time.
In the case of `Cc1cc(-c2nc3ccccc3s2)ccc1NC(=O)[C@@H](N)CCCCN`, the GI50 was < 0.0301 µM (active) in the assay with MCF7; 0.993 µM (active) with TK-10; 12 µM (inactive) with SNB-19; 14.3 µM (inactive) in the assay with PC-3; 12.9 µM (inactive) in the assay with OVCAR-3; 14.7 µM (inactive) in the assay with ACHN. For the same compound, the GI50 is 3.83 µM (inactive) in the assay on A498; 6.58 µM (inactive) with MOLT-4; 16.1 µM (inactive) in the assay on HOP-92; 5.04 µM (inactive) with MDA-N; 9.27 µM with HCT-15; < 0.0247 µM (active) with T47D. In addition, the GI50 in the assay with EKVX was 12.2 µM (inactive); in the assay on SK-OV-3 it was 13.5 µM (inactive); in the assay with IGROV-1, 1.69 µM (inactive); in the assay with K562, 7.01 µM (inactive); with NCI-H522, 6.75 µM (inactive); with LOX IMVI it was 2.03 µM (inactive).
Regarding `C=C(C)C(=O)OC1C[C@H](COC(C)=O)C2CC=C(CO)C2C2OC(=O)C(=C)[C@H]12` (stereo partly specified), the GI50 is 38.1 µM (inactive) with MCF7; 74.6 µM (inactive) with TK-10; > 100 µM (inactive) in the assay with SNB-19; > 100 µM (inactive) with SF-539; > 100 µM (inactive) in the assay on PC-3; 42.4 µM (inactive) in the assay on OVCAR-3. Moreover, the GI50 in the assay on ACHN was 44.3 µM (inactive); in the assay on A498, > 100 µM (inactive); in the assay with MOLT-4, 13.8 µM (inactive); with MDA-N it was 34.5 µM (inactive); in the assay with HCT-15, 24.8 µM; in the assay with HL-60, 23.1 µM (inactive). The GI50 is 34.8 µM (inactive) in the assay on T47D; > 100 µM (inactive) in the assay with EKVX; > 100 µM (inactive) in the assay with SK-OV-3; > 100 µM (inactive) in the assay on IGROV-1; 14.9 µM (inactive) with K562; 19.1 µM (inactive) in the assay with NCI-H522. The GI50 in the assay with LOX IMVI is 26.7 µM (inactive).
With `O=C(O)CC(Cc1ccccc1Cl)C(=O)O` (stereo unspecified), the GI50 with MCF7, in the assay on TK-10, with SNB-19, with PC-3, in the assay with OVCAR-3 and with ACHN was > 100 µM (inactive) in each case. In addition, the GI50 is > 100 µM (inactive) with A498; > 100 µM (inactive) in the assay on MOLT-4; > 100 µM (inactive) with HOP-92; > 100 µM (inactive) with MDA-N; more than 100 µM in the assay with HCT-15; > 100 µM (inactive) in the assay with T47D. In addition, the GI50 with EKVX, in the assay on SK-OV-3, in the assay with IGROV-1, in the assay on K562, with NCI-H522 and in the assay with LOX IMVI was > 100 µM (inactive) each time.
As to `Cn1c(=O)c2c(nc3n2CC(=O)N3CCCCl)n(C)c1=O`, the GI50 in the assay on MCF7, in the assay with TK-10, in the assay on SNB-19, with PC-3, in the assay with OVCAR-3 and in the assay on ACHN was > 100 µM (inactive) throughout. Further, the GI50 with A498 was > 100 µM (inactive); in the assay with MOLT-4, 83.8 µM (inactive); in the assay with HOP-92, > 100 µM (inactive); in the assay on MDA-N it was > 100 µM (inactive); in the assay on HCT-15 it was more than 100 µM; in the assay on HL-60, > 100 µM (inactive). Further, the GI50 with T47D, with EKVX, in the assay on SK-OV-3, in the assay on IGROV-1, with K562 and in the assay with LOX IMVI was > 100 µM (inactive) in each case.
In the case of `O=C1[C@@H]2C[C@@H](O)CN2C(=O)c2ccccc2N1CCCO`, the GI50 with MCF7, in the assay on TK-10, in the assay with SNB-19, with SF-539, with PC-3 and in the assay on OVCAR-3 was > 100 µM (inactive) in each case. Further, the GI50 was > 100 µM (inactive) in the assay with ACHN; > 100 µM (inactive) in the assay with A498; 82 µM (inactive) with MOLT-4; > 100 µM (inactive) in the assay with HOP-92; > 100 µM (inactive) with MDA-N; more than 100 µM in the assay on HCT-15. For the same compound, the GI50 in the assay on T47D, with EKVX, in the assay on SK-OV-3, with IGROV-1, with K562 and with NCI-H522 was > 100 µM (inactive) throughout. In the assay on LOX IMVI, the GI50 is > 100 µM (inactive).
In the case of `COCC#C[C@@]1(O)CCCCC1CC(OC)OC` (stereo partly specified), the GI50 in the assay with MCF7 is 60 µM (inactive); in the assay on TK-10 it was > 100 µM (inactive); in the assay with SNB-19, > 100 µM (inactive); in the assay with PC-3 it was > 100 µM (inactive); in the assay with ACHN it was > 100 µM (inactive); in the assay on A498, 38.4 µM (inactive). The GI50 in the assay with MOLT-4 was 42.7 µM (inactive); in the assay with HOP-92, 94.6 µM (inactive); with MDA-N, > 100 µM (inactive); in the assay on HCT-15, 76.2 µM; in the assay on HL-60, 55.1 µM (inactive); in the assay with T47D, > 100 µM (inactive). In addition, the GI50 is > 100 µM (inactive) in the assay on EKVX; > 100 µM (inactive) in the assay with SK-OV-3; 48.1 µM (inactive) in the assay on IGROV-1; 49.7 µM (inactive) with K562; 24.7 µM (inactive) in the assay with NCI-H522; 48 µM (inactive) with LOX IMVI.
For the compound `CC1=C(C)C2(C#N)C(=O)N3C(=NC(c4ccco4)NC3c3ccco3)C2(C#N)C(c2ccco2)N1` (stereo unspecified), the GI50 in the assay with MCF7, in the assay on TK-10, in the assay on SNB-19, in the assay with PC-3, in the assay with ACHN and in the assay with A498 was > 100 µM (inactive) throughout. The GI50 is > 100 µM (inactive) with MOLT-4; > 100 µM (inactive) in the assay with HOP-92; > 100 µM (inactive) with MDA-N; more than 100 µM in the assay with HCT-15; > 100 µM (inactive) with HL-60; > 100 µM (inactive) in the assay on T47D. Further, the GI50 in the assay on EKVX, in the assay on SK-OV-3, in the assay with IGROV-1, in the assay on NCI-H522 and with LOX IMVI was > 100 µM (inactive) in each case.
Take `Cc1ccc(NC(=O)/C(=N\NC(N)=O)c2c(O)c3ccccc3[nH]c2=O)cc1`: the GI50 with MCF7, in the assay with SNB-19, with SF-539, in the assay on PC-3, in the assay on OVCAR-3 and with ACHN was > 100 µM (inactive) each time. The GI50 is > 100 µM (inactive) in the assay with A498; > 100 µM (inactive) in the assay with MOLT-4; > 100 µM (inactive) with HOP-92; > 100 µM (inactive) in the assay on MDA-N; more than 100 µM in the assay with HCT-15; > 100 µM (inactive) in the assay on HL-60. Moreover, the GI50 in the assay on T47D, in the assay with SK-OV-3, with K562 and in the assay on LOX IMVI was > 100 µM (inactive) each time.
